Earlier results in paper PMC10104807, “Modulation of tau tubulin kinases (TTBK1 and TTBK2) impacts ciliogenesis” (Scientific Reports, 2023).

How the values were obtained:
[1] = tested on: 403 wild-type (WT) human kinases; parameters: method as in PMID 33944571; settings: 1 μM; cited from earlier work
[2] = tested on: tau phosphorylation; settings: cited from earlier work
[3] = parameters: method as in PMID 34978799; settings: cited from earlier work

Row | Structure (SMILES) | number of kinases bound with PoC < 10 in DiscoverX scanMAX panel [1] | tau phosphorylation at multiple disease-relevant sites in vivo [2] | brain penetration [3]
1 | CC[C@](C)(O)C#Cc1cc2c(cn1)cnn2-c1ccnc(N)n1 [BGN18] | sixteen | – | –
2 | CC[C@](C)(O)C#Cc1cc2c(ccn2-c2cc(OC)nc(N)n2)cn1 [BGN31] | eight | significantly lowered | –
3 | Clc1ccc(-c2ccc(Nc3ncnc4[nH]ccc34)cc2)cc1 [compound 29] | – | – | good brain penetration
